Laboratory results as given in ChEMBL document CHEMBL5291721, “A preclinical secondary pharmacology resource illuminates target-adverse drug reaction associations of marketed drugs” (Nat Commun, 2023).

What was measured:
Estrogen receptor = target: T1, Estrogen receptor (Homo sapiens, UniProt P03372)
T1 sequence (P03372 whole entry): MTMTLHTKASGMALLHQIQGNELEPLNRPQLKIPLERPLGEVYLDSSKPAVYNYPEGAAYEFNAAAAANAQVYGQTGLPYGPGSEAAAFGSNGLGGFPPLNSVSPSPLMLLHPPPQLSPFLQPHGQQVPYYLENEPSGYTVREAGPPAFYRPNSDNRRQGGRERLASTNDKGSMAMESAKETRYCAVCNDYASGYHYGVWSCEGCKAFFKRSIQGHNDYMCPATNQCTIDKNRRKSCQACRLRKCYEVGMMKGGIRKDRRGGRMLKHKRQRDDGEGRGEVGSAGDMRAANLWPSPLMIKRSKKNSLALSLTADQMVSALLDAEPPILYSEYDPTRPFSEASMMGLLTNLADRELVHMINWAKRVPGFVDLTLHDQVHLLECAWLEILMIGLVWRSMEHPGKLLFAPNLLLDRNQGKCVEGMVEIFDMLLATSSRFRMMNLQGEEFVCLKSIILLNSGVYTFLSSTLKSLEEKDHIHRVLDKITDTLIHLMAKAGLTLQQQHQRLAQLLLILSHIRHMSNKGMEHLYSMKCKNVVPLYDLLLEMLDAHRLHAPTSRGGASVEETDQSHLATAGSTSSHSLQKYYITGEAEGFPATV

[1] = target: Beta-3 adrenergic receptor (Homo sapiens, UniProt P13945)
B1 bradykinin receptor = target: T2, B1 bradykinin receptor (Homo sapiens, UniProt P46663)
T2 sequence (P46663 whole entry): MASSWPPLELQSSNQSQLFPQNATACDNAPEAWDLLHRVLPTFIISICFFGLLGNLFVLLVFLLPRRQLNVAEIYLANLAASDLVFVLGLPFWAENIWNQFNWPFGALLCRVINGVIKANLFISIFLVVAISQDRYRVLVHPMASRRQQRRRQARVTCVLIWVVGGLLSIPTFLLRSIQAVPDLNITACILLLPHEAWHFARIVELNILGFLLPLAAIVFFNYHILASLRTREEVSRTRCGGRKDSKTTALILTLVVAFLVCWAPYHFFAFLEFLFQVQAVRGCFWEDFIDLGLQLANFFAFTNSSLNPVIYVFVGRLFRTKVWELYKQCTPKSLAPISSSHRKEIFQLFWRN

[2] = target: T3, Corticotropin-releasing factor receptor 2 (Homo sapiens, UniProt Q13324)
T3 sequence (Q13324 whole entry): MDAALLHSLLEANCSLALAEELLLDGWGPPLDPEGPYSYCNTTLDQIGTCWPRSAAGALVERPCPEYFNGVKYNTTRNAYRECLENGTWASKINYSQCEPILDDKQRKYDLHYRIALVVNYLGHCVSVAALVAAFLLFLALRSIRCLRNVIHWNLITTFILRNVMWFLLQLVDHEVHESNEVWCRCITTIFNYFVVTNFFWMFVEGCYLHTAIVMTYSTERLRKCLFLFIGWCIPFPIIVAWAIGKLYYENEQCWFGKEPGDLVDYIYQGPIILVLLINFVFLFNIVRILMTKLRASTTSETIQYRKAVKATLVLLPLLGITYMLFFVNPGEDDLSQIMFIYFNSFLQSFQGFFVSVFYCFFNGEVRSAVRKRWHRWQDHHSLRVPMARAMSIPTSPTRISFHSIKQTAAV

[3] = target: T4, Endothelin receptor type B (Homo sapiens, UniProt P24530)
T4 sequence (P24530 whole entry): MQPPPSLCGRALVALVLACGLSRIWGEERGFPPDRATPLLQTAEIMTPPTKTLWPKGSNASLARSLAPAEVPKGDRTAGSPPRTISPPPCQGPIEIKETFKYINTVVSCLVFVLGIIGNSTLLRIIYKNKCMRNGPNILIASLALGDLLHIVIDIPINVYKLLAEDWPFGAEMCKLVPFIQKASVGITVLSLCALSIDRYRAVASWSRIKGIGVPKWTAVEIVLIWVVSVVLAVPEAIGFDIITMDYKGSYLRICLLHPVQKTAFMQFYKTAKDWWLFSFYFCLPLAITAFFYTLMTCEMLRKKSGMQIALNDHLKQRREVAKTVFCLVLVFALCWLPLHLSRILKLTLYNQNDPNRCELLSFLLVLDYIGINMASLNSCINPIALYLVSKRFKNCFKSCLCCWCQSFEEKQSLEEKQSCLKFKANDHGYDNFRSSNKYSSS

[4] = target: T5, 5-hydroxytryptamine receptor 1A (Homo sapiens, UniProt P08908); assay type: functional, cell-based
T5 sequence (P08908 whole entry): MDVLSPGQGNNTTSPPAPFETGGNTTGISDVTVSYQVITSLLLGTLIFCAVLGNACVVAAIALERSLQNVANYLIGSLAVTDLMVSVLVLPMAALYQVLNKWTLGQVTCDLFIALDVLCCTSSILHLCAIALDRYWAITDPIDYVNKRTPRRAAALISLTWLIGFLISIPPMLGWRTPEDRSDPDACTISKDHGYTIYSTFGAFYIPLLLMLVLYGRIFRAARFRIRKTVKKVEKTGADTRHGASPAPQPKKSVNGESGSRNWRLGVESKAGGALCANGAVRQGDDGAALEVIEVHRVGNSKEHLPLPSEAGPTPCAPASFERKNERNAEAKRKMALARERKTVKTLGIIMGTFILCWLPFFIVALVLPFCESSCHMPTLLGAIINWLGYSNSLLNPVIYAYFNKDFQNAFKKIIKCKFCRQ

[5] = target: 5-hydroxytryptamine receptor 2B (Homo sapiens, UniProt P41595)
[6] = target: T6, Neuropeptide Y receptor type 2 (Homo sapiens, UniProt P49146)
T6 sequence (P49146 whole entry): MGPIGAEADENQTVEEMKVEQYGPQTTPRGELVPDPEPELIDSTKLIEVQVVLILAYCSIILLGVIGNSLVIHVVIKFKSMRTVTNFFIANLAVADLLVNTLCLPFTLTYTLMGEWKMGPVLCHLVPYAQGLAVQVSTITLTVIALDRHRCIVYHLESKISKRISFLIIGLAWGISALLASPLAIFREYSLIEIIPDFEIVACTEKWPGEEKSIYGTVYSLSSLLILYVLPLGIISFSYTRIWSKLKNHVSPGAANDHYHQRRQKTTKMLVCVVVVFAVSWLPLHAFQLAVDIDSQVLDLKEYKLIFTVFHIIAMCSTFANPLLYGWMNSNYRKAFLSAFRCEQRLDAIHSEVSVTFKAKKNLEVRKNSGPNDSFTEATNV
Also: assay procedure not described here.

Beta-3 adrenergic receptor, sequence (P13945 whole entry): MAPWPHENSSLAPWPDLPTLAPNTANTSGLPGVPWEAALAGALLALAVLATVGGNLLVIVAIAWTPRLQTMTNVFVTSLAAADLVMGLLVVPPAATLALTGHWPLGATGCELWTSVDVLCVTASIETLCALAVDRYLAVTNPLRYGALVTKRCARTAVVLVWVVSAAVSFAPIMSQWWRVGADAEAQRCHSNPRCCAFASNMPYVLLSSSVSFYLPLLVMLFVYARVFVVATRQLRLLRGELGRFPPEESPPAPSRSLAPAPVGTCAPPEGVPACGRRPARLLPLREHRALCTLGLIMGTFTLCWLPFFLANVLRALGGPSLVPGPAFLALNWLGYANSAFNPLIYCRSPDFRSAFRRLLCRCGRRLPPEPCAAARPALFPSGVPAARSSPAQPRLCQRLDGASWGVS
5-hydroxytryptamine receptor 2B, sequence (P41595 whole entry): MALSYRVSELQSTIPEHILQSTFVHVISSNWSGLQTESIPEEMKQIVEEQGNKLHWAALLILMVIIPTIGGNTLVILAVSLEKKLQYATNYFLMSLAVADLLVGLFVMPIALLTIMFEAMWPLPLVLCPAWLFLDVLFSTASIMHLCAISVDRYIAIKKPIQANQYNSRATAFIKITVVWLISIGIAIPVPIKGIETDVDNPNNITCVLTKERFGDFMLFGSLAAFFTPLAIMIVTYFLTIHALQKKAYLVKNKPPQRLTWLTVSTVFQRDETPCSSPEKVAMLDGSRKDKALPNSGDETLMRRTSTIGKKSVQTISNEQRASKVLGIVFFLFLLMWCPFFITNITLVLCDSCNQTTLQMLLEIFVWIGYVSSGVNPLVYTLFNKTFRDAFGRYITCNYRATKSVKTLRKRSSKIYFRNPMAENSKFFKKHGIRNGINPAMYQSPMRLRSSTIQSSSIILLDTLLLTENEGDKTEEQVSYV

| SMILES | AC50 (Estrogen receptor) | AC50 [1] | AC50 (B1 bradykinin receptor) | AC50 [2] | AC50 [3] | AC50 [4] | AC50 [5] | AC50 [6] |
| --- | --- | --- | --- | --- | --- | --- | --- | --- |
| CCC(CC)(CC(=O)Nc1cccc(/C=C/c2nc(C3CCC3)cs2)c1)C(=O)O | > 30 µM |  |  |  |  |  |  |  |
| O=[N+]([O-])O[C@@H]1CO[C@H]2[C@@H]1OC[C@@H]2O [ISOSORBIDE MONONITRATE] | > 30 µM | > 30 µM | > 30 µM | > 30 µM | > 30 µM | > 10 µM | > 10 µM | > 30 µM |
| O=[N+]([O-])c1cn2c(n1)OC[C@@H](OCc1ccc(OC(F)(F)F)cc1)C2 [PRETOMANID] |  | > 30 µM | > 30 µM |  | > 30 µM |  | > 10 µM | > 30 µM |
| C=CCN1C[C@H](C(=O)N(CCCN(C)C)C(=O)NCC)C[C@@H]2c3cccc4[nH]cc(c34)C[C@H]21 [CABERGOLINE] | > 10 µM |  |  |  |  |  | 0.0086 µM |  |
| CN(C)CCC=C1c2ccccc2C=Cc2ccccc21 [CYCLOBENZAPRINE] | > 30 µM | > 30 µM | > 30 µM | > 30 µM | > 30 µM | > 10 µM |  | > 30 µM |
| CCOc1ccccc1OCC1CNCCO1 (stereo not drawn) [VILOXAZINE] | > 30 µM | > 30 µM | > 30 µM | > 30 µM | > 30 µM | > 10 µM | 2.34 µM | > 30 µM |
| COc1ccc(C(=O)Nc2ccccc2CCC2CCCCN2C)cc1 (stereo not drawn) [ENCAINIDE] | > 30 µM | > 30 µM | > 30 µM | > 30 µM | > 30 µM | > 10 µM | 3.66 µM | > 30 µM |
| CN(C)CCc1c[nH]c2ccc(C[C@H]3COC(=O)N3)cc12 [ZOLMITRIPTAN] | > 30 µM |  |  |  |  |  |  |  |
| CN(C)CC/C=C1\c2ccccc2CSc2ccccc21 [DOTHIEPIN] | > 30 µM |  |  |  |  |  |  |  |
| CC[C@@H](C(N)=O)N1CCCC1=O | > 30 µM |  |  |  |  | > 30 µM |  |  |
| CCOc1ccc(Cc2cc([C@@H]3O[C@H](CO)[C@@H](O)[C@H](O)[C@H]3O)ccc2Cl)cc1 [DAPAGLIFLOZIN] | > 30 µM | > 30 µM |  |  |  |  | > 10 µM |  |
| COc1ccccc1N1CCN(CC(O)COc2cccc3ccccc23)CC1 (stereo not drawn) [NAFTOPIDIL] |  |  |  |  |  | 1.2 µM | 0.047 µM |  |
| COc1cc2nc(N3CCN(C(=O)c4ccco4)CC3)nc(N)c2cc1OC [PRAZOSIN] | > 30 µM | > 30 µM | > 30 µM | > 30 µM | > 30 µM |  | 2.57 µM | > 30 µM |
| CCCC1O[C@@H]2C[C@H]3[C@@H]4CCC5=CC(=O)C=C[C@]5(C)[C@H]4[C@@H](O)C[C@]3(C)[C@]2(C(=O)CO)O1 (stereo partly drawn) [BUDESONIDE] |  |  |  |  |  | > 10 µM |  |  |
| CCCCCNC(=N)N/N=C/c1c[nH]c2ccc(OC)cc12 [TEGASEROD] |  | 6.08 µM | > 30 µM | > 30 µM | > 30 µM | 0.87 µM | 0.0206 µM | > 30 µM |
